Reference: publication PMC10202811 (Nature Medicine, 2023)
“Also recorded” adds a separate entry of the source.

Assay: Real-time neurobehavioral monitoring of CNS effects
Format: in vivo, human
From the text: The Adaptive Behavior Assessment System 3rd edition (ABAS-3; Harrison & Oakland, 2015) parent-report and self-report forms were used for the assessment of adaptive skills for individuals across all ages. Internal consistency has been reported to be 0.96 or greater for the composite adaptive behavior scale and between 0.86 and 0.99 for the subscales. Construct, convergent and discriminant validity have also been established for this measure.
The Behavior Assessment System for Children 3rd edition (BASC-3; Reynolds & Kamphaus, 2015) is a questionnaire assessing behavioral, emotional and adaptive functioning across settings. For purposes of this study, the Parent Rating Scales (PRS) were administered for patients ages 2–5 years (Preschool form, PRS-P), 6–11 years (Child form, PRS-C) and 12–17 years (Adolescent form, PRS-A). The Self-Report of Personality (SRP) College Form was administered for adult patients ages 18–25 years. The reliability of the BASC-3 is strong, with internal consistency averaging above 0.80 for all the age-specific versions of this questionnaire, and average test–retest reliability is 0.86.
The Behavior Rating Inventory of Executive Function (BRIEF; Gioia et al. 2000) is a questionnaire designed to assess behavioral manifestations of executive functioning and includes multiple versions. Parents of participants aged 2–5 years completed the 63-item preschool version (BRIEF-P). Parents of participants aged 6–17 years completed the BRIEF parent form, which consists of 86 individual items from which eight clinical scales, two indices and one composite score are derived. Patients who were ≥18 years of age completed a 75-item self-report adult version (BRIEF-A). Scores are standardized by age and gender, and high internal consistency (0.73–0.98) and test–retest reliability (0.76–0.90) were observed. Construct, content, convergent and discriminant validity have been established.
CogState Research Battery (version 7; Sands et al. 2017; Heitzer et al. 2018) is a flexible battery of computer-based tests developed to monitor domains of cognition typically affected by cancer treatment, such as attention, memory, executive function and processing speed. Three different versions were used, one for children 3–5 years of age, one for children 6–9 years of age and one for patients 10 years of age and older. Age-standardized z-scores were derived based on the CogState normative dataset finalized in September 2014 for adults and in February 2016 for pediatrics, with construct validity, criterion validity, cultural equivalence and limited practice effects established.
Only measures with established language translations were used. If measures were not available in a patient’s primary language, neurobehavioral toxicity assessment was based on the treating physician’s clinical determination using CTCAE version 4.0 grading criteria. All measures were individually administered by trained, qualified site personnel. Standardized scores were obtained for each instrument administered by comparing raw scores to normative samples provided by the test publishers. All evaluation results were reviewed, analyzed and interpreted centrally in real time by a pediatric neuropsychologist. Determination of clinically meaningful change in functioning (that is, significant decline) relative to baseline or previous screening exam was made at each retest interval. This was calculated using reliable change indices (RCIs) for individual tests or scales, which account for standard errors of measurement, to determine whether a statistically significant change in scores occurred between two timepoints. Meaningful change in performance was considered to occur when clinically significant decline (using 90% CI) was present in 50% of select administered measures. […]

[1] = A1 (< 18 yrs), DL 5 (115 mg/m^2)
[2] = B2 (< 18yrs), DL 5 (115 mg/m^2)
[3] = patient with CNS DLT, A2 (≥ 18 yrs), 100 mg
[4] = patient with CNS DLT, B2 (< 18yrs), DL 5 (115 mg/m^2)
[5] = patients with CNS DLT, A2 (≥ 18 yrs), 150 mg

C[C@H]1Oc2cc(cnc2N)-c2c(nn(C)c2C#N)CN(C)C(=O)c2ccc(F)cc21 [Lorlatinib, (10R)-7-amino-12-fluoro-2,10,16-trimethyl-15-oxo-10,15,16,17-tetrahydro-2H-8,4-(metheno)pyrazolo[4,3-h][2,5,11]-benzoxadiazacyclotetradecine-3-carbonitrile]
DLT Corresponding Neuropsych Symptoms, Cognitive [1]: Stable
DLT Corresponding Neuropsych Symptoms, Psychosocial [1]: Adaptive Skills Depression
DLT Corresponding Neuropsych Symptoms, Cognitive (A2 (≥ 18 yrs), 100 mg): Speed/Efficiency Working Memory Immediate Recall
DLT Corresponding Neuropsych Symptoms, Psychosocial (A2 (≥ 18 yrs), 100 mg): Adaptive Skills Attention Working Memory
DLT Corresponding Neuropsych Symptoms, Cognitive (A2 (≥ 18 yrs), 150 mg): Stable
DLT Corresponding Neuropsych Symptoms, Psychosocial (A2 (≥ 18 yrs), 150 mg): Anxiety Depression Emotional Lability Atypicality^c; also recorded: Adaptive Skills Depression Emotional Lability Working Memory
DLT Corresponding Neuropsych Symptoms, Cognitive [2]: Speed/ Efficiency Working Memory
DLT Corresponding Neuropsych Symptoms, Psychosocial [2]: Adaptive Skills Anxiety
Pre-Cycle Neuropsych Symptoms, Psychosocial (patient with CNS DLT, A1 (< 18 yrs), DL 5 (115 mg/m^2)): Atypicality Adaptive Skills
Pre-Cycle Neuropsych Symptoms, Cognitive (patient with CNS DLT, A1 (< 18 yrs), DL 5 (115 mg/m^2), decline from baseline): Stable
Pre-Cycle Neuropsych Symptoms, Cognitive [3]: Speed/ Efficiency Working Memory
Pre-Cycle Neuropsych Symptoms, Psychosocial [3]: Adaptive Skills Attention
Pre-Cycle Neuropsych Symptoms, Cognitive [4]: Speed/ Efficiency
Pre-Cycle Neuropsych Symptoms, Psychosocial [4]: Atypicality Anxiety
Pre-Cycle Neuropsych Symptoms, Cognitive [5]: Stable; also recorded: Visual Memory
Pre-Cycle Neuropsych Symptoms, Psychosocial [5]: Adaptive Skills Anxiety Emotional Lability Working Memory Atypicality; also recorded: Depression Emotional Lability Working Memory
